# Data reported in US20080009623A1, “Pyrimidine compounds” (Eisai R&D Management Co., Ltd., priority 2006, published 2008).
# Columns and labels:
# [1] = biological target: T1, Human adenosine A1 receptor (Homo sapiens, UniProt P30542); assay: Adenosine A1 receptor binding experiment (3H-CCPA displacement, CHOK1 membrane specimen); conditions: calculated from IC50 by Cheng-Prusoff's expression; 3H-CCPA binding, membranes of CHOK1 cells over-expressing human A1, 30° C., 120 minutes; read-out: inhibition constant (Ki value)
# T1 construct: expressed in transfected cells; host or cells: CHOK1 cells (membrane specimen)
# T1 sequence (P30542 1-326): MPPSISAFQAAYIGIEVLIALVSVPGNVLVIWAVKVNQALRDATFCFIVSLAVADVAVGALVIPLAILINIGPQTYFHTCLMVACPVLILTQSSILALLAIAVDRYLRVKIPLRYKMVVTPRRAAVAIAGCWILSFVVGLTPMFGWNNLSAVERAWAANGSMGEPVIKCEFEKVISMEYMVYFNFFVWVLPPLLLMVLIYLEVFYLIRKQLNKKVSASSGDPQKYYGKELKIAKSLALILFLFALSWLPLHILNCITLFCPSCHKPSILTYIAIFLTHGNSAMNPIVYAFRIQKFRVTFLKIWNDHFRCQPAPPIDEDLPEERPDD
# Method: Human adenosine A1 receptor cDNA was subjected to an over-expression in CHOK1 cells and its membrane specimen was suspended in a 20 mM HEPES buffer (containing 10 mM MgCl2 and 100 mM NaCl; pH 7.4) to make the protein concentration of 66.7 μg/mL. To 0.45 mL of this membrane specimen suspension were added 0.025 mL of tritium-labeled 60 nM chlorocyclopentyl adenosine (^3H-CCPA, manufactured by NEN corporation) and 0.025 mL of a solution of the compound of the present invention. The mixture was allowed to stand at 30° C. for 120 minutes, subjected to a quick suction on a glass fiber filter (GF/B; manufactured by Whatman) and immediately washed with 5 mL of water-cooled 50 mM Tris-HCl buffer twice. After that, the glass fiber filter was transferred to a vial bottle, a scintillator was added, and the radioactivity on the filter was measured by a liquid scintillation counter. […]
# At this point, total binding amount is a ^3H-CCPA binding radioactivity in the absence of the compound of the present invention, non-specific binding amount is a ^3H -CCPA binding radioactivity in the presence of 100 μM of RPIA ([R]-[1-methyl-2-phenylethyl]adenosine), and binding amount in the presence of the compound of the present invention is a ^3H-CCPA binding radioactivity in the presence of the compound of the present invention of various concentrations.
# [2] = biological target: T2, Human adenosine A2B receptor (Homo sapiens, UniProt P29275); assay: Inhibition of NECA-stimulated cAMP production in A2B receptor expressed cells; format: cell-based; conditions: CHOK1 cells over-expressing human A2B; 30 nM NECA; in the presence of Ro-20-1724; cAMP enzyme immunoassay; read-out: 50% inhibitory concentration (IC50) for NECA-stimulated cAMP production
# T2 construct: expressed in transfected cells; host or cells: CHOK1 cells
# T2 sequence (P29275 1-332): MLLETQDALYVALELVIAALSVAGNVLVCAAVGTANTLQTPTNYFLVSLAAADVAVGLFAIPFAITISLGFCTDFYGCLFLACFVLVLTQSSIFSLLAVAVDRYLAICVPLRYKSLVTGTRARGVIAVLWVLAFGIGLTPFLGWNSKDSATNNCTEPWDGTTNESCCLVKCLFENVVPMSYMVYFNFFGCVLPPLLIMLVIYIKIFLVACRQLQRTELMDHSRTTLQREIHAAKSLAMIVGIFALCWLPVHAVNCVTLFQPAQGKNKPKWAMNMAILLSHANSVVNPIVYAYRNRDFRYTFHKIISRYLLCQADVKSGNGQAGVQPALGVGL
# Method: Human adenosine A2B receptor was over-expressed in CHOK1 cells. The cells were uniformly placed on a 24-well plate at the rate of 1.5×10^5 cells/well, incubated for one night and then used for the experiments. The inhibition rate of the compound of the present invention for the amount of cAMP produced by stimulation of 30 nM of 5′-N-ethylcarboxyamideadenosine (NECA; manufactured by Sigma corporation) was evaluated as affinity of the compound of the present invention to the A2B receptor. Thus, after washing adherent cells with 2 mL/well of a Krebs-Ringer buffer (containing 0.1 % BSA; pH7.4) twice, a pre-incubation was carried out at 0.5 mL/well for 30 minutes. After that, […] of a mixed solution containing NECA and the compound of the present invention were added in the presence of Ro-20-1724 (manufactured by RBI corporation) which is a phosphodiesterase inhibitor. 15 minutes after pre-incubation, the reaction was stopped by adding 0.1N HCl to the reaction solution. Measurement of cAMP was carried out using a cAMP enzyme immunoassay kit manufactured by Amersham corporation. Calculation of the inhibition rate of the compound of the present invention to the NECA-stimulated cAMP production was carried out by the following expression. […]
smiles,measurement,setting,value
"Cn1cc(-c2c(O)nc(N)nc2-c2ccco2)ccc1=O [the compound of the present invention, 5-[2-amino-4-(2-furyl)-6-hydroxypyrimidin-5-yl]-1-methylpyridin-2(1H)-one]",Ki,[1],157 nM
same,IC50,[2],72.7 nM
